{"source": "patent US4250259A", "about": "“Microbiological production of ketones from C3 -C6 secondary alcohols” (priority 1979, dated 1981)", "key": {"[1]": {"tested_on": "Methanomonas methylovora ATCC 21852 (Obligate)", "assay": "sec-alcohols to ketones by resting cell suspensions", "type": "cell-based", "protocol": "(§1) The pH of the nutrient medium was adjusted to 7.0 by the addition of acid or base and 50 ml. samples of the nutrient medium were charged into a plurality of 300 ml. shaker flasks. The shaker flasks were inoculated with an inoculating loop of cells from an agar plate containing homogeneous colonies of the microorganisms on the plate (the purity of the isolates was confirmed by microscopic examination). The isolates had been maintained on methanol (0.4% V/V) agar plates or on agar plates under an atmosphere of methane and air having a 1:1 V/V gas ratio which had been transferred every two weeks. For growth on methanol, the medium was supplemented with 0.4% methanol. For growth on methane, the gaseous phase of the inoculated flasks was replaced with a gas mixture comprised of methane and air having a ratio of 1:1 on a V/V basis. The inoculated flasks were sealed air-tight and were incubated on a rotary shaker of orbital radius 2.5 cm. at 250 rpm and at 30° C. for two days until turbidity in the medium had developed. The cells were harvested by centrifugation at 10,000×g. at 4° C. for 30 minutes. The cell pellet was washed twice with a 0.05 M phosphate buffer at a pH of 7.0 (containing 0.02 M MgCl2). The washed cells were then suspended in a 0.05 M phosphate buffer at pH 7.0.\n(§2) A 0.5 ml. sample of each washed cell suspension (2 mg. cells) was put into 10 ml. vials at 4° C. which were sealed with a rubber cap. The gaseous phase of the vials was removed with vacuum and then was replaced with a gas mixture of the substrate reactant (i.e., alkane or secondary alcohol) and oxygen at a 1:1 V/V ratio. (In the case of a liquid substrate, i.e., secondary alcohol, 10 μl of the substrate was put in the 10 ml. vials). […] Samples of product (1-3 μl) were withdrawn periodically with a microsyringe and the products were analyzed by gas chromatography (ionization flame detector column).\n(§3) The procedure in Example 1 was repeated except that a plurality of methanol-utilizing methylotrophic microorganisms were each aerobically grown in a methanol-containing nutrient medium instead of a methane-containing medium. The nutrients in the medium were the same as indicated in Example 1 except that 0.4% V/V methanol was used as the alcohol dehydrogenase inducer and as the major carbon and energy source for growth. The cells were harvested and washed as described in Example 1. The resting microbial cells of the induced methanol-grown methanol-utilizing methylotrophic microorganisms were then contacted with C3 -C6 secondary alcohols in a buffered solution by the procedure of Example 1.\n(§4) The procedure in Example 1 was repeated except that the methylotrophic microorganisms were each aerobically grown in an alcohol dehydrogenase-inducing growth medium containing methylamine or methyl formate as the alcohol dehydrogenase enzyme inducer and growth substrate instead of methane. The nutrients in the medium were the same as indicated in Example 1 except that 0.4% V/V of the alcohol dehydrogenase-inducer growth substrate was used as the major carbon and energy source. The cells were harvested and washed as described in Example 1. The resting microbial cells were then contacted with C3 -C6 secondary alcohols in a buffered solution by the conversion procedure of Example 1."}, "[2]": {"tested_on": "Pseudomonas sp. ATCC 21438 (Facultative)", "assay": "sec-alcohols to ketones by resting cell suspensions", "type": "cell-based", "protocol": "as §1, §2, §3, §4"}, "[3]": {"tested_on": "Pseudomonas MS ATTC 25262 (Facultative)", "assay": "sec-alcohols to ketones by resting cell suspensions", "type": "cell-based", "conditions": "methanol-grown cells", "protocol": "as §1, §2, §3"}, "[4]": {"tested_on": "Pseudomonas sp. ATCC 21439 (Obligate)", "assay": "sec-alcohols to ketones by resting cell suspensions", "type": "cell-based", "conditions": "methanol-grown cells", "protocol": "as §1, §2, §3"}, "[5]": {"tested_on": "Hansenula polymorpha ATCC 26012", "assay": "sec-alcohols to ketones by cell suspensions of yeasts", "type": "cell-based"}, "[6]": {"tested_on": "cell suspensions of C1-utilizers", "assay": "studies on production of 2-butanone from 2-butanol by cell suspensions of the strains tested", "type": "cell-based", "conditions": "cell suspensions", "description": "The following summarizes tests conducted on the optimal conditions for the production of methyl ketones from C3 -C6 sec. alcohols.\nThe substrate specificity for the oxidation of C3 -C6 secondary alcohols by the strains of C1 -utilizers was studied."}, "[7]": {"tested_on": "secondary alcohol dehydrogenase (SADH), cell-free soluble extract", "assay": "oxidation of sec-alcohols by cell-free soluble extracts", "type": "biochemical, Pseudomonas sp. CRL 75 (ATCC 21,439)", "conditions": "soluble crude extract; grown on methanol", "protocol": "(§5) To prepare the cell-free secondary alcohol dehydrogenase (SADH) system, the washed cells were disrupted with a Wave Energy Ultrasonic Oscillator, Model W201 (Wave Energy System, Inc., Newtown, Pa.) and centrifuged at 20,000×g. for 30 minutes. […] The enzyme activity was measured with a fluorescence spectrophotometer (Perkin Elmer, Model MPF 44A) by following the formation of reduced NAD (EX 340 nm, Em 460 nm). The formation of reduced NAD was also followed with an absorption spectrophotometer at 340 nm. The assay system (3 ml.) contained: potassium phosphate buffer pH 7.0; 150 μmol.; NAD 1 μmol.; a given amount of enzyme preparation; and secondary alcohol 10 μmol. The reaction was started by the addition of substrate. One unit of enzyme activity represents the reduction of one μmole NAD per minute. Protein concentrations were determined by the Lowry method (J. Biol. Chem., 193: 255-275 (1951)).\n(§6) The experimental procedure for the tests reported in Table VIII were as follows: 1 mg protein of crude extract was added into a 0.5 ml. 0.05 M phosphate buffer (pH 7.0) in a 10-ml. vial. […] The reaction mixture was incubated at 30° C. on a water bath. A 3 μl sample was removed with a syringe at 15 min. of incubation and was assayed with g.l.c. Catalytic activity was also assayed by fluorescence spectrophotometry."}, "[8]": {"tested_on": "Candida utilis ATCC 26387", "assay": "sec-alcohols to ketones by cell suspensions of yeasts", "type": "cell-based"}, "[9]": {"tested_on": "secondary alcohol dehydrogenase (SADH), cell-free soluble extract", "assay": "oxidation of sec-alcohols by cell-free soluble extracts", "type": "biochemical, Methylosinus trichosporium OB3b (NRRL B-11,196)", "conditions": "soluble crude extract; grown on methanol", "protocol": "as §5, §6"}, "[10]": {"tested_on": "cell extracts (NAD+-dependent secondary alcohol dehydrogenase)", "assay": "sec-alcohols to methyl ketones by cell extracts of yeasts, gas chromatography", "type": "biochemical, Pichia sp. NRRL-Y-11,328", "conditions": "grown on methanol"}}, "data": [{"smiles": "CC(C)O", "note": "[2-Propanol, 2-propanol]", "values": [{"measurement": "Conversion Rates, sec-alcohol to corresponding ketone", "setting": "[1]; methanol-grown cells", "value": 0.28, "unit": "μmoles/hr/mg protein"}, {"measurement": "Conversion Rates, sec-alcohol to corresponding ketone", "setting": "[1]; methyl formate-grown cells", "value": 0.62, "unit": "μmoles/hr/mg protein"}, {"measurement": "Conversion Rates, sec-alcohol to corresponding ketone", "setting": "[1]; methylamine-grown cells", "value": 0.82, "unit": "μmoles/hr/mg protein"}, {"measurement": "Conversion Rates, sec-alcohol to corresponding ketone", "setting": "[2]; methanol-grown cells", "value": 0.45, "unit": "μmoles/hr/mg protein"}, {"measurement": "Conversion Rates, sec-alcohol to corresponding ketone", "setting": "[2]; methyl formate-grown cells", "value": 0.52, "unit": "μmoles/hr/mg protein"}, {"measurement": "Conversion Rates, sec-alcohol to corresponding ketone", "setting": "[2]; methylamine-grown cells", "value": 1.0, "unit": "μmoles/hr/mg protein"}, {"measurement": "Conversion Rates, sec-alcohol to corresponding ketone", "setting": "[3]", "value": 0.80, "unit": "μmoles/hr/mg protein"}, {"measurement": "Conversion Rates, sec-alcohol to corresponding ketone", "setting": "[4]", "value": 7.4, "unit": "μmoles/hr/mg protein"}, {"measurement": "Conversion Rate, sec-alcohol to corresponding ketone", "setting": "[5]; Growth Substrate Ethanol", "value": "5.0 μmoles/hr/mg of protein"}, {"measurement": "Conversion Rate, sec-alcohol to corresponding ketone", "setting": "[5]; Growth Substrate Methanol", "value": "5.9 μmoles/hr/mg of protein"}, {"measurement": "Conversion Rate, sec-alcohol to corresponding ketone", "setting": "[5]; Growth Substrate Methylamine", "value": "5.2 μmoles/hr/mg of protein"}, {"measurement": "Conversion Rate, sec-alcohol to corresponding ketone", "setting": "[5]; Growth Substrate Methylformate", "value": "5.6 μmoles/hr/mg of protein"}, {"measurement": "Conversion Rate, sec-alcohol to corresponding ketone", "setting": "[5]; Growth Substrate Propylamine", "value": "4.1 μmoles/hr/mg of protein"}, {"measurement": "rate of oxidation of secondary alcohols by strains of C1-utilizers", "setting": "[6]", "value": "higher rates"}, {"measurement": "Oxidation Rate, sec-alcohol to corresponding ketone", "setting": "[7]", "value": 21.2, "unit": "nmole/min/mg protein"}, {"measurement": "Conversion Rate, sec-alcohol to corresponding ketone", "setting": "[8]; Growth Substrate Ethanol", "value": "5.2 μmoles/hr/mg of protein"}, {"measurement": "Conversion Rate, sec-alcohol to corresponding ketone", "setting": "[8]; Growth Substrate Methanol", "value": "6.2 μmoles/hr/mg of protein"}, {"measurement": "Conversion Rate, sec-alcohol to corresponding ketone", "setting": "[8]; Growth Substrate Methylamine", "value": "5.0 μmoles/hr/mg of protein"}, {"measurement": "Conversion Rate, sec-alcohol to corresponding ketone", "setting": "[8]; Growth Substrate Methylformate", "value": "5.6 μmoles/hr/mg of protein"}, {"measurement": "Conversion Rate, sec-alcohol to corresponding ketone", "setting": "[8]; Growth Substrate Propylamine", "value": "4.2 μmoles/hr/mg of protein"}, {"measurement": "Oxidation Rate, sec-alcohol to corresponding ketone", "setting": "[9]", "value": 2.0, "unit": "nmole/min/mg protein"}, {"measurement": "Conversion Rate, sec-alcohol to methyl ketone", "setting": "[10]", "value": 5.5, "unit": "μmoles/hr/mg Protein"}]}]}
